“And” between values parts separate entries of the source, which are not always exact repeats. Equal entries are not always repeated.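 Values below derive from 48-hour exposures of cells grown in 96-well plates, with endpoints linearly interpolated between the two concentrations bracketing the appropriate inhibition level. Abbreviation: GI50, concentration required for 50% inhibition of growth. TGI denotes the concentration required for complete inhibition of growth.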 Where a SMILES comes first, the peptide text is derived from it. The star is where a group is joined. Trt = c1ccc(C(c2ccccc2)(c2ccccc2)*)cc1; Cbz = O=C(OCc1ccccc1)*
Experiments:
Experiment in all cases: NCI tumour cell line growth inhibition, 48 h
[1] = test system: DU-145 prostate
[2] = test system: HL-60(TB) leukemia
[3] = test system: K-562 leukemia
[4] = test system: M14 melanoma
[5] = test system: NCI-H226 lung
[6] = test system: OVCAR-8 ovarian
[7] = test system: RPMI-8226 leukemia
[8] = test system: SF-295 CNS
[9] = test system: SK-MEL-5 melanoma
[10] = test system: U251 CNS

SMILES | TGI [1] [µM] | TGI [2] | TGI [3] [µM] | TGI [4] | TGI [5] | TGI [6] | TGI [7] | TGI [8] | TGI [9] | TGI [10] | GI50 [1] [µM] | GI50 [2] | GI50 [3] | GI50 [4] | GI50 [5] | GI50 [6] [µM] | GI50 [7] | GI50 [8] [µM] | GI50 [9] | GI50 [10] [µM]
Cc1ccc(CNc2ccc(Br)cc2)cc1 | > 100 | > 100 µM | > 100 | > 100 µM | > 100 µM | 65.3 µM | 17.5 µM | > 100 µM | 30.8 µM | > 100 µM | – | – | – | – | – | – | – | – | – | –
COc1cc2c(c(OC)c1OC)-c1ccc(NN(C(=O)c3ccccc3)C(=O)c3ccccc3)c(=O)cc1[C@@H](NC(C)=O)CC2 (tested in a mixture with another compound) | > 100 | 14.7 µM | > 100 | 6.45 µM | 37.4 µM | 42.7 µM | 82.5 µM | > 100 µM | 11 µM | 21.3 µM | 3.3 | 2.1 µM | 4.03 µM | 2.36 µM | 10.6 µM | 3.86 | 4.72 µM | 3.81 | 2.49 µM | 3.77
CO[C@H]1C[C@@H]2CC[C@@H](C)[C@@](O)(O2)C(=O)C(=O)N2CCCC[C@H]2C(=O)O[C@H]([C@H](C)C[C@@H]2CC[C@@H](OC(=O)C(C)(CO)CO)[C@H](OC)C2)CC(=O)[C@H](C)/C=C(\C)[C@@H](O)[C@@H](OC)C(=O)[C@H](C)C[C@H](C)\C=C/C=C/C=C/1C | > 10 | > 10 µM | > 10 | > 10 µM | > 10 µM | > 10 µM | > 10 µM | > 10 µM | > 10 µM | > 10 µM | 0.045 | > 10 µM | 5.96 µM | > 6.06 µM | 0.0273 µM | – | 0.00102 µM | < 0.001 | 1.35 µM | –
CCCn1c2c(c3ccccc3c1=O)C(=O)c1ccccc1-2 | > 100 | 7.25 µM | > 100 | > 100 µM | > 100 µM | > 100 µM | > 100 µM | > 100 µM | > 100 µM | > 100 µM | – | – | – | – | – | – | – | – | – | –
COC(=O)C(CO)NC(=O)C(CSC(c1ccccc1)(c1ccccc1)c1ccccc1)NC(=O)OCc1ccccc1 (configuration not stated) (Cbz-Cys(Trt)-Ser-OMe; configuration not given here) | 43.4 | > 43.6 µM | > 49 | 44 µM | 26.4 µM | 36.5 µM | 5.55 µM | 34.5 µM | 28.4 µM | 33.3 µM | – | – | – | – | – | – | – | – | – | –
O=C1/C(=C/c2ccc(Cl)c(Cl)c2)CN(C(=O)C(Cl)Cl)C/C1=C\c1ccc(Cl)c(Cl)c1 | 1.41 | 1.05 µM | > 36.2 | 0.587 µM | 0.366 µM | 1.51 µM | 0.485 µM | 0.704 µM | 0.418 µM | 0.153 µM | 0.369 | 0.198 µM | 0.0369 µM | 0.206 µM | 0.192 µM | 0.0505 | 0.0285 µM | 0.154 | 0.196 µM | 0.0371
C/C(=N\O)c1ccc2ccc3ccccc3c2c1 | > 100 | 66.6 µM | 93 | > 100 µM | 85.6 µM | 61.4 µM | > 100 µM | 86.9 µM | 37 µM | > 100 µM | – | – | – | – | – | – | – | – | – | –
CCCCN(CCCC)C(=O)[C@H](CC)[C@@H]1CC[C@@H](C)[C@@H]([C@H](C)[C@@H](O)[C@@H](C)C(=O)[C@H](CC)C2O[C@]3(C=C[C@@H](O)[C@]4(CC[C@@](C)([C@H]5CC[C@](O)(CC)[C@H](C)O5)O4)O3)[C@H](C)C[C@@H]2C)O1 (some centres not stated) | 6.42 | 5.7 µM | 18.4 | – | 5.51 µM | 65.4 µM | 5.85 µM | 6.38 µM | 3.15 µM | 10.3 µM | 2.61 | 2.35 µM | 2.66 µM | – | 2.01 µM | 3.43 | 1.79 µM | 2.06 | 1.73 µM | 2.78
CC1CC2C3CCC4=CC(=O)C=CC4(C)C3(F)C(O)CC2(C)C1(O)C(=O)COP(=O)(O)O (configuration not stated) | > 500 | > 500 µM | > 500 | > 500 µM | > 500 µM | > 500 µM | > 500 µM | > 500 µM | > 500 µM | > 500 µM | > 500 | > 500 µM | > 500 µM | > 500 µM | > 500 µM | > 500 | 16.6 µM | > 500 | > 500 µM | > 500
N#CCn1c(=O)c(Oc2ccc(F)cc2F)cc2cnc(NC3CCOCC3)nc21 | > 25 | > 25 µM | > 25 | > 25 µM | > 25 µM | > 25 µM | > 25 µM | > 25 µM | > 25 µM | > 25 µM | > 25 | > 25 µM | > 25 µM | > 25 µM | > 25 µM | > 25 | > 25 µM | > 25 | > 25 µM | > 25
CC(=O)OCC1OC(n2c(=S)n(-c3ccc([N+](=O)[O-])cc3)c(=O)c3ccccc32)C(OC(C)=O)C(OC(C)=O)C1OC(C)=O (configuration not stated) | > 100 | 29.4 µM and 59.1 µM | > 100 | 48.8 µM and > 100 µM | 58.4 µM and 49 µM | 63.5 µM and 47.6 µM | 17.8 µM and > 100 µM | > 59.8 µM and 62.3 µM | 23.3 µM and > 100 µM | 42 µM and 37.8 µM | – | 4.13 µM and 25.2 µM | 10.7 µM and 27.2 µM | 16 µM and 30.7 µM | 10.1 µM and 20.4 µM | – | 4.41 µM and 19.9 µM | – | 8.06 µM and 25.6 µM | –
COc1cnc2c(c1)C(=O)c1c-2n(CCCNC2=NCCS2)c(=O)c2cc(F)ccc12 | 1.63 | 1.56 µM | 2.92 | 1.32 µM | 1.66 µM | 4.72 µM | 1.21 µM | 0.891 µM | 1.44 µM | 1.35 µM | 0.144 | 0.381 µM | 0.249 µM | 0.17 µM | 0.247 µM | 0.132 | 0.0702 µM | 0.0518 | 0.342 µM | 0.0442
CN=C(N)c1ccc(N=C(N)c2ccc(-c3ccc(C(N)=Nc4ccc(C(N)=NC)cc4)cc3)cc2)cc1 | > 100 | > 100 µM | > 100 | > 100 µM | > 100 µM | > 100 µM | > 100 µM | > 100 µM | > 100 µM | > 100 µM | 41.2 | 58.3 µM | 89.5 µM | 82.2 µM | 55.9 µM | 52.1 | 46.5 µM | 41.1 | 33.6 µM | 55.5

Source: PubChem BioAssay (NCI)
